Source: patent US20240318141A1, “MATURATION AGENT” (Orizuru Therapeutics, Inc., priority 2021, published 2024)
“And” between values parts separate entries of the source, which are not always exact repeats. Equal entries are not always repeated.

What was measured:
[1] = system: non-endocrine cells in insulin-producing cell population (QHJI-I14s04 iPS cell line); experiment: Cisplatin or docetaxel treatment in step 6), then extended culture in basal medium containing EGF (Example 2); format: cell-based, human
From the text: The differentiation of a QHJI-I14s04 iPS cell line into an insulin-producing cell population was induced by the three-dimensional culture method using a bioreactor according to steps 1) to 6) described above and the previous report (Nature Biotechnology 2014; 32: 1121-1133). Specifically, the iPS cells were subjected to the first culture in a medium (DMEM/1% B-27 (INS+)/Penicillin Streptomycin/dimethyl sulfoxide) containing differentiation-inducing factors (GSK3β inhibitor, ROCK inhibitor and low dose of activin A) under conditions causing action of insulin, and subsequently subjected to the second culture in a medium (DMEM/1% B-27 (INS−)/Penicillin Streptomycin/dimethyl sulfoxide) containing a differentiation-inducing factor (low dose of activin A) under conditions causing no action of insulin to obtain a definitive endoderm cell population. Further, a pancreatic endocrine progenitor cell population obtained by the induction of differentiation from the definitive endoderm cell population was cultured in a medium (Improved MEM/1% B-27 (INS+)/Penicillin Streptomycin) containing differentiation-inducing factors (ALK5 inhibitor II, T3, LDN, Y-secretase inhibitor RO, and ascorbic acid) and FGF receptor 1 inhibitor (PD-166866) to obtain an insulin-producing cell population.
An insulin-producing cell population obtained without the addition of cisplatin and docetaxel was used as a control cell population and subjected to extended culture in the same manner as above.
Marker protein expression (PDX1, CHGA, and Ki67) in each insulin-producing cell population before the start of and after the completion of extended culture was measured by flow cytometry. Samples after the completion of extended culture were collected by sampling three times from the same culture container. The number of cells was measured in an automatic cell counter at the time of sample preparation for flow cytometry, and the total number of cells per mL of the bioreactor was calculated. The number of CHGA-positive cells, the number of PDX1-positive and CHGA-negative cells, and the number of PDX1-negative and CHGA-negative cells were calculated from the obtained total number of cells and the flow cytometry results.

[2] = system: insulin-producing cell population (QHJI-114s04 iPS cell line); experiment: Marker protein expression by flow cytometry of insulin-producing cell population prepared by addition of docetaxel (Example 3); format: cell-based, human
From the text: The differentiation of a QHJI-114s04 iPS cell line into insulin-producing cells was induced by the three-dimensional culture method using a bioreactor and a multiwell plate according to steps 1) to 6) described above and the previous report (Nature Biotechnology 2014; 32: 1121-1133). Specifically, the iPS cells were subjected to the first culture in a medium (DMEM/1% B-27 (INS+)/Penicillin Streptomycin/dimethyl sulfoxide) containing differentiation-inducing factors (GSK3β inhibitor, ROCK inhibitor and low dose of activin A) under conditions causing action of insulin, and subsequently subjected to the second culture in a medium (DMEM/1% B-27 (INS−)/Penicillin Streptomycin/dimethyl sulfoxide) containing a differentiation-inducing factor (low dose of activin A) under conditions causing no action of insulin to obtain definitive endoderm cells. Further, a pancreatic endocrine progenitor cell population obtained by the induction of differentiation from the definitive endoderm cells was cultured in a medium (MCDB131/20 mM Glucose/NaHCO3/FAF-BSA/ITS-X/Glutamax/Penicillin Streptomycin) containing differentiation-inducing factors (ALK5 inhibitor II, T3, LDN, γ-secretase inhibitor RO, […]) to obtain an insulin-producing cell population. The exchange from the bioreactor to the multiwell plate was carried out in step 6).
Marker protein expression (NKX6.1, C-peptide (insulin), CHGA, and Ki67) in each insulin-producing cell population after the completion of culture was measured by flow cytometry. Respective samples were collected by sampling from separate culture containers. The number of cells was measured in an automatic cell counter at the time of sample preparation for flow cytometry, and the total number of cells per well of the multiwell plate was calculated.

[3] = system: immunodeficient NOD/SCID mouse with streptozotocin-induced insulin-deficient diabetes mellitus; experiment: In vivo transplantation of insulin-producing cell population prepared by addition of docetaxel: plasma human C-peptide and graft weight (Example 5)
Method: An immunodeficient NOD/SCID mouse was prepared by inducing insulin-deficient diabetes mellitus with streptozotocin. […] After transplantation, a human C-peptide concentration in plasma was measured over time. The graft was excised 6 months after transplantation, and its weight was measured.

[4] = system: non-endocrine cells in graft (Outgrowth, Cyst); experiment: Evaluation of non-endocrine cells in graft and protein expression by HE and immunohistological staining (Example 5); format: in vivo, mouse; settings: graft 6 months after transplantation
Method: The excised graft was fixed and dehydrated, and a paraffin section was then prepared and subjected to HE staining and immunohistological staining for the expression of the proteins of interest (insulin, glucagon, Ki67, human nucleus, PDX1, and CK19). The presence or absence of non-endocrine cells was confirmed on the basis of the morphology and staining image thereof. The number and frequency of non-endocrine cells appearing in the graft were counted as total numbers from four tests conducted with cells derived from a plurality of batches treated in the same manner.
Outgrowth shown in Table 9 refers to a population of human nucleus-positive, PDX1-negative, and Ki67-positive non-endocrine cells, and its presence was determined from morphology by HE staining as well as by immunohistological staining. Cyst shown in Table 9 refers to human nucleus-positive, PDX1-positive, and CK19-positive non-endocrine duct cells, and its presence was determined from a duct form by HE staining as well as by immunohistological staining.

[5] = after extended culture 4 weeks, EGF present, average of three samplings
[6] = after extended culture 4 weeks, EGF present, single samplings
[7] = after extended culture involving EGF, with respect to control cell population
[8] = s6d11 (before extended culture); 3 μM cisplatin or 1 μM docetaxel for 7 days from day 4 of step 6)

CC(=O)O[C@@]12CO[C@@H]1C[C@H](O)[C@@]1(C)C(=O)[C@H](O)C3=C(C)[C@@H](OC(=O)[C@H](O)[C@@H](NC(=O)OC(C)(C)C)c4ccccc4)C[C@@](O)([C@@H](OC(=O)c4ccccc4)[C@H]21)C3(C)C [Docetaxel, (−)-(1S,2S,3R,4S,5R,7S,8S,10R,13S)-4-Acetoxy-2-benzoyloxy-5,20-epoxy-1,7,10-trihydroxy-9-oxotax-11-en-13-yl (2R,3S)-3-tert-butoxycarbonylamido-2-hydroxy-3-phenylpropionate]
population exhibiting marked increase by extended culture (table footnote) ([1]; 1 μM docetaxel, extended culture with EGF): No population exhibited marked increase by extended culture | The number of cells CHGA+, average [1, 5]: 22 ×10^4 cells/mL | The number of cells PDX+/CHGA−, average [1, 5]: 1.7 ×10^4 cells/mL | The number of cells PDX−/CHGA−, average [1, 5]: 2.8 ×10^4 cells/mL | Total number of cells, average [1, 5]: 27 ×10^4 cells/mL | The number of cells CHGA+ [1, 6]: 21 ×10^4 cells/mL and 22 ×10^4 cells/mL and 24 ×10^4 cells/mL | The number of cells PDX+/CHGA− [1, 6]: 2.0 ×10^4 cells/mL and 1.5 ×10^4 cells/mL | The number of cells PDX−/CHGA− [1, 6]: 3.1 ×10^4 cells/mL and 2.7 ×10^4 cells/mL | Total number of cells [1, 6]: 26 ×10^4 cells/mL and 28 ×10^4 cells/mL | proportion of PDX1-negative and CHGA-negative (PDX1−/CHGA−) cells [1, 7]: drastically decreased | proportion of PDX1-positive and CHGA-negative (PDX1+/CHGA−) cells [1, 7]: drastically decreased | total number of cells after extended culture (in words) ([1]; extended culture involving EGF): decreased | The number of cells CHGA+ [1, 8]: 73 ×10^4 cells/mL | The number of cells PDX+/CHGA− [1, 8]: 1.3 ×10^4 cells/mL | The number of cells PDX−/CHGA− [1, 8]: 0.1 ×10^4 cells/mL | Total number of cells [1, 8]: 74 ×10^4 cells/mL | number of CHGA-positive endocrine cells after extended culture (in words) ([1]; with respect to control cell population): not changed | increase of proportion of INS-positive and NKX6.1-positive cells ([2]; 1 μM docetaxel, 7 days from day 4 of step 6), with respect to control cell population): about 10% | Total number of cells ([2]; docetaxel treatment 1, 3 or 10 μM): not changed | abundance of CHGA-negative and Ki67-positive (CHGA−/Ki67+) cells ([2]; medium with PD-166866, irrespective of presence or absence of docetaxel treatment, without extended culture): ≤ 0.1% | action on proportion of INS-positive and NKX6.1-positive cells at higher concentration ([2]; up to the docetaxel concentration of 10 μM): not changed | graft weight ([3]; graft excised at 6 months after transplantation): low tendency | persistence of human C-peptide secretion after transplantation ([3]; subcutaneous transplantation, follow-up): continuously confirmed up to 6 months after transplantation | human C-peptide secretion in plasma ([3]; subcutaneously transplanted cell population prepared by addition of docetaxel vs prepared without docetaxel): at the same level | Ki67-positive cells in graft (immunohistological staining) [4]: slightly scattered | insulin-positive and glucagon-positive cells in graft (immunohistological staining) [4]: many insulin-positive and glucagon-positive cells were confirmed throughout the whole graft | Frequency of appearance (%), Cyst ([4]; total of 4 tests, 21 animals): 10% | Frequency of appearance (%), Outgrowth ([4]; total of 4 tests, 21 animals): 0% | The number of appearance, Cyst ([4]; total of 4 tests, 21 animals): 2 | The number of appearance, Outgrowth ([4]; total of 4 tests, 21 animals): 0
